# Laboratory results published in patent US10238630B2, “Use of eribulin and poly (ADP ribose) polymerase (PARP) inhibitors as combination therapy for the treatment of cancer” (Eisai R&D Management Co., Ltd., priority 2014, dated 2019).
# Key:
# [1] = system: MDA-MB-436 human breast cancer xenografts; assay: Antitumor activity against subcutaneous MDA-MB-436 human breast cancer xenografts in SCID mice (three studies); type: in vivo
# Description: MDA-MB-436 human triple negative breast cancer cells are BRCA1 mutant and PTEN null. Cells were maintained in monolayer cultures in RPMI-1640 growth medium supplemented with 10% fetal bovine serum at 37° C. in a 5% CO2 humidified incubator. On the day of inoculation, cells were harvested by trypsinization, washed, and resuspended in ice-cold PBS. Female immunodeficient SCID mice were inoculated subcutaneously near the right axillary area with MDA-MB-436 cells (5×10^6) in a 1:1 ratio (50 μL each) with Matrigel™ in a volume of 0.1 mL in phosphate buffered saline, using a 26-gauge needle. A total of 125 mice, approximately 6 weeks old were implanted with MDA-MB-436 cells.
# E7449, carboplatin and E7389 were evaluated as single agents and in combination for antitumor activity against MDA-MB-436 human breast cancer xenografts in SCID mice. Three separate studies were performed. The first experiment consisted of a vehicle control group, an E7449 single agent group, two groups treated with single agent E7389 and 2 combination drug-treated groups (Table 1). Thirty mice were inoculated with MDA-MB-436 cells and on Day 58 following implantation, tumor volumes were measured and mice were randomized into the 6 treatment groups based on tumor volume (average of 300 mm^3). Following randomization, drug treatment was initiated. Groups A to D were composed of 5 mice and groups E and F consisted of 4 mice for a total of 28 mice on the first day of treatment. E7449 was formulated in 0.5% methyl cellulose and orally administered once daily for 28 days (starting on Day 58) at 60 mg/kg based on body weight at 0.1 mL per 10 g. E7389 was formulated in saline and was intravenously administered once every 4 days, 4 times (Day 58, 62, 66, and 70) at a dosage of 0.4 or 1.6 mg/kg as single agent or in combination with E7449, based on body weight at 0.1 mL per 10 g. The control group was treated with oral vehicle (0.5% methyl cellulose in water) daily and intravenous vehicle (saline) once every 4 days, 4 times. E7449 or vehicle was administered first and when dosing of all animals was complete, E7389 was administered to animals receiving the combination.
# The second experiment consisted of a vehicle control group, an E7449 single agent group, 2 groups treated with single agent carboplatin, and 2 combination drug-treated groups (Table 2). Thirty-five mice were inoculated with MDA-MB-436 cells and on Day 57, following implantation, tumor volumes were measured and mice were randomized into 6 treatment groups based on tumor volume (average of 250 mm^3). Following randomization drug treatment was initiated. Groups A to D were composed of 5 mice and groups E and F consisted of 6 mice for a total of 32 mice on the first day of treatment. E7449, formulated in 0.5% methyl cellulose was orally administered daily for 28 days (starting on Day 57), at 60 mg/kg based on body weight at 0.1 mL per 10 g. Carboplatin was formulated in saline and was intravenously administered once on the first day of treatment (Day 57) at a dosage of 15 or 60 mg/kg as a single agent or in combination with E7449 based on body weight at 0.1 mL per 10 g. The control group was treated with oral vehicle (0.5% methyl cellulose in water) daily and intravenous vehicle (saline) once on Day 57. E7449 or vehicle was administered first, and when dosing of all animals was complete carboplatin was administered to animals receiving the combination.
# The third experiment consisted of a vehicle control group, 3 groups treated with single agent E7449, E7389, or carboplatin, 3 groups treated with double combinations of E7449+E7389, E7449+carboplatin, and E7389+carboplatin and a group treated with the three-drug combination (Table 3). Sixty mice were inoculated with MDA-MB-436 cells and on Day 41 following implantation, tumor volumes were measured and mice were randomized into 8 treatment groups based on tumor volume (average of 250 mm^3). Following randomization drug treatment was initiated.
# [2] = system: MDA-MB-231 human breast cancer xenografts; assay: Antitumor activity against subcutaneous MDA-MB-231 human breast cancer xenografts in athymic mice (two studies); type: in vivo; settings: carboplatin 15 and 60 mg/kg IV QDx1, single agent
# Description: MDA-MB-231 human triple negative breast cancer cells are wild type for BRCA1 and 2 and PTEN. Cells were maintained in monolayer cultures in RPMI-1640 growth medium supplemented with 10% fetal bovine serum at 37° C. in a 5% CO2 humidified incubator. On the day of inoculation, cells were harvested by trypsinization, washed, and resuspended in ice-cold PBS. Female immunodeficient athymic mice were inoculated subcutaneously near the right axillary area with MDA-MB-231 cells (5×10^6) in a 1:1 ratio (50 μL each) with Matrigel™ in a volume of 0.1 mL in phosphate buffered saline, using a 26-gauge needle. A total of 94 mice, approximately 6 weeks old were implanted with MDA-MB-231 cells.
# E7449, carboplatin and E7389 were evaluated as single agents and in combination for antitumor activity against MDA-MB-231 human breast cancer xenografts in athymic mice. The first experiment consisted of a vehicle control group, an E7449 single agent group, 2 groups treated with single agent E7389 and 2 combination drug-treated groups (Table 5). Thirty-nine mice were inoculated with MDA-MB-231 cells and on Day 21 following implantation, tumor volumes were measured and mice were randomized into the 6 treatment groups based on tumor volume (average of 300 mm^3). Following randomization drug treatment was initiated. Each group was composed of 5 mice for a total of 30 mice on the first day of treatment. E7449 was formulated in 0.5% methyl cellulose and orally administered once daily for 28 days at 100 mg/kg based on body weight at 0.1 mL per 10 g. E7389 was formulated in saline and was intravenously administered once every 4 days, 4 times (Day 21, 25, 29, and 33) at a dosage of 0.05 or 0.1 mg/kg as single agent or in combination with E7449, based on body weight at 0.1 mL per 10 g. The control group was treated with oral vehicle (0.5% methyl cellulose in water) daily and intravenous vehicle (saline) once every 4 days, 4 times. E7449 or vehicle was administered first and when dosing of all animals was complete E7389 was administered to animals receiving the combination.
# The second experiment consisted of a vehicle control group, 2 groups treated with single agent E7449, 2 groups treated with single agent carboplatin and 3 combination drug-treated groups (Table 6). Fifty five mice were inoculated with MDA-MB-231 cells and on Day 18 following implantation, tumor volumes were measured and mice were randomized into 8 treatment groups based on tumor volume (average of 300 mm^3). Following randomization drug treatment was initiated. Each group consisted of 5 mice for a total of 40 mice on the first day of treatment. E7449, formulated in 0.5% methyl cellulose was orally administered daily for 28 days, at 60 or 100 mg/kg based on body weight at 0.1 mL per 10 g. Carboplatin was formulated in saline and was intravenously administered once on the first day of treatment (Day 18) at a dosage of 15 or 60 mg/kg as a single agent or in combination with E7449 based on body weight at 0.1 mL per 10 g. The control group was treated with oral vehicle (0.5% methyl cellulose in water) daily and intravenous vehicle (saline) once on Day 18. E7449 or vehicle was administered first and when dosing of all animals was complete carboplatin was administered to animals receiving the combination.
# Drug treatment was initiated 21 or 18 days post tumor implantation, in the E7389 and carboplatin combination studies respectively, and continued for 28 days. […]
smiles,measurement,setting,value
N.N.O=C([O-])C1(C(=O)[O-])CCC1.[Pt+2] [carboplatin],antitumor effect (tumor volume),"[1]; E7449+carboplatin study, carboplatin 15 and 60 mg/kg IV QDx1, single agent",Dose-dependent antitumor activity
same,antitumor effect (tumor volume),"[1]; triple combination study, carboplatin 7.5 mg/kg IV QDx1, single agent",statistically significant tumor growth inhibition
same,antitumor effect (tumor volume),[2],Modest antitumor activity
